Measured values from patent EP1669365A1, “Method for preparing enzymatic substrate analogs as inhibitors of bacterial heptosyl-transferases” (priority 2004, dated 2006).

Molecular target: T1, WaaC (Escherichia coli, UniProt P24173)
T1 construct: made in house; host or cells: E. coli BL21 double mutant with the heptosyltransferase I and II genes deleted
Assay: WaaC IC50 fluorimetric in vitro heptosyltransferase assay (NADH fluorescence, pyruvate kinase/lactate dehydrogenase coupled)
Format: biochemical
Settings: inhibitory activity on Waac enzymatic activity; 1nM purified WaaC, 3µM Re-LPS, pH 7.0
Description: A fluorimetric in vitro assay was set up to quantify the enzymatic activity of purified heptosyl transferase.Said fluorimetic assay is used to identify inhibitors and for measuring IC50 determinations.
WaaC IC50 assays are performed in black 96-well plates (Wallac) in a final volume of 100µL at pH 7.0 comprising: the inhibitor studied dissolved in 2µL DMSO at 10 different concentrations, 50mM HEPES, 10mM MgCl2, 50mM KCl, 0.1% Triton-), 3µM Re-LPS (Sigma, purified from Salmonella Minnesota), 1nM of purified WaaC, 5u/mL Pyruvate kinase (Sigma), 50µM Phosphoenolpyruvate (Sigma), 5u/mL Lactate dehydrogenase (Sigma) and 1.5µM NADH (Sigma). Fluorescence intensity of NADH (λex= 360nm, λem=520nm) is read once before enzyme addition (background), and is followed kinetically afterwards. Initial velocities are determined from the linear phase after background substraction. IC50 curves are fitted to a classical sigmoidal model with Hill slope.

T1 sequence (P24173 whole entry): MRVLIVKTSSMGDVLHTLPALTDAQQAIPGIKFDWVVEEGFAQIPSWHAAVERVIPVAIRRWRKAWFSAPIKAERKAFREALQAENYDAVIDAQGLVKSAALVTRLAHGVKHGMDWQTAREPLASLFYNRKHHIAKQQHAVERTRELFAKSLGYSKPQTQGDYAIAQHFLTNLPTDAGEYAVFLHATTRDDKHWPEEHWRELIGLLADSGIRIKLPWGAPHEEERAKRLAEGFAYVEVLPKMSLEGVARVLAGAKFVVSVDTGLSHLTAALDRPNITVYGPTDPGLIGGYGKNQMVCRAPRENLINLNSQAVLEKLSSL

“Adenosine 5'-diphospho-2-Deoxy-2-fluoro-6-L-glycero-β-D-heptoglucopyranoside” was tested, and the IC50 was 57 µM.
